Reference: PMC5669199, “CM352 Reduces Brain Damage and Improves Functional Recovery in a Rat Model of Intracerebral Hemorrhage” (Journal of the American Heart Association: Cardiovascular …, 2017)

Assays:
[1] = tested on: tissue‐type plasminogen activator–induced fibrinolysis in rat whole blood; experiment: Whole blood clot formation and lysis assay (ROTEM thromboelastometry), rat blood; assay type: biochemical
Description: Citrated blood samples from (n=4) rats (Sprague Dawley) and (n=16) mice ([…], Harlan Iberica) were assayed with a ROTEM analyzer (Pentapharm GmbH, Munich, Germany) as previously described.20 In a prewarmed cuvette and holder we pipetted 1 μL tissue-type plasminogen activator (150 000 U/mL), 20 μL Start-tem reagent (Pentapharm GmbH), 20 μL In-tem reagent (Pentapharm GmbH), 3 μL DMSO (SIGMA) or test compounds in DMSO, and 300 μL prewarmed citrated blood. The cup holder containing the sample mixture was placed immediately on the appropriate channel. Measurements were recorded for 60 minutes to allow clot formation and lysis, and results are expressed as effective concentration to delay lysis time by 50%.

MMP‐12 = target: T1, MMP‐12 (Homo sapiens, UniProt P39900); experiment: MMP enzyme activity assay; assay type: biochemical; details: read-out: MMP Inhibitory Activity (IC50), MMP‐12
T1 construct: GenScript (contract testing)
T1 sequence (P39900 106-470, species assumed): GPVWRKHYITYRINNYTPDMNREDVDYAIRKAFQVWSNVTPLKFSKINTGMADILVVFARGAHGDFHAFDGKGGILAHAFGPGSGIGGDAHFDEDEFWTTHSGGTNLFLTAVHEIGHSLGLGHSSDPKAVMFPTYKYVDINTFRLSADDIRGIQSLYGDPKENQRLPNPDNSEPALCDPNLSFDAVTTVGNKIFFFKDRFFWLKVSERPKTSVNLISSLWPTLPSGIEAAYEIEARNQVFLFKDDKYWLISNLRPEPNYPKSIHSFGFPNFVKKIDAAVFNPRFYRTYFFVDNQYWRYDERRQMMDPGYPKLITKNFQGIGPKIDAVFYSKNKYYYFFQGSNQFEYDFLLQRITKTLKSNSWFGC
Description: […]. Protease stock solutions (10 mmol/L) were diluted with assay buffer to make final test solutions containing no more than 2.0% DMSO. The samples were dispensed into plates; substrate was added and read with PHERAstar PLUS (BMG Labtech, Ortenberg, Germany) plate reader.

[2] = target: bacterial collagenase type VII; experiment: Collagenase activity assay (FALGPA substrate); assay type: biochemical; details: tested 10 nmol/L to 10 μmol/L; no significant effect
Description: Enzymatic assay of collagenase was performed using FALGPA (Sigma‐Aldrich Corp, St. Louis, MO) as substrate, according to the manufacturer's recommendations. Briefly, proteolysis of 1 mmol/L FALGPA by 2 U/mL bacterial collagenase type VII (Sigma‐Aldrich Corp, St. Louis, MO) in reaction buffer (50 mmol/L Tricine; 10 mmol/L CaCl2; 400 mmol/L NaCl) was monitored spectrophotometrically (345 nm) for 5 minutes, in the presence of CM352, phenanthroline, or vehicle.

[3] = tested on: rat model of collagenase‐induced ICH; experiment: Hematoma and lesion volume by T2‐weighted MRI in ICH rat model; assay type: in vivo
Description: Glucose levels were analyzed before surgery (mean 144.3±22.1 mg/dL). Rats were placed in a stereotaxic frame (Stoelting Co, Wood Dale, IL) under sevoflurane anesthesia. After drilling of a small burr hole, 1 μL of saline containing 0.2 U/μL bacterial collagenase type VII (Sigma‐Aldrich Corp, St. Louis, MO) was injected into the right striatum (0.6 mm anterior to bregma, −3.0 mm lateral and 5.5 mm depth) using a Hamilton syringe with a 30 G needle. Injections took place over a 10‐minute period, and the needle remained in place for additional 10 minutes before removal (1 mm/min). The burr hole was filled with bone wax (Ethicon, Somerville, NJ), and the scalp incision was closed with sutures.
. The same experimental design and setting were used to assess the effect of late (3 hours) CM352 treatment. Required sample size was calculated from previous studies using the same model21 in order to be able to detect a 25% effect size on hematoma growth versus controls (2‐tailed t test). Six animals per group are required to detect this difference with a power (1−β) of 0.8 and α=0.05. N was calculated using EPIDAT software (http://www.sergas.es/Saude-publica/EPIDAT-4-2). All treatments were given as a single bolus (jugular) 60 minutes after the collagenase injection for ICH induction. […]
Gradient‐echo pilot scans were performed at the beginning of each imaging session for accurate positioning of the animal inside the magnet bore. Multislice axial T2‐weighted imaging was performed at baseline (1 hour after IHC induction), and at 3 hours, 24 hours, and 14 days after ICH. T2‐weighted images were acquired using a RARE (factor n=4) sequence with the following acquisition parameters: field‐of‐view 19.2×19.2 mm^2, image matrix 192×192 (isotropic in‐plane resolution of 0.1×0.1 mm/pixel), 18 consecutive slices of 0.5 mm thickness.
Magnetic resonance data analysis was performed using Para Vision (Bruker Medical, Ettlingen, Germany), and images were processed with ImageJ (W. S. Rasband, National Institutes of Health, Bethesda, MD: http://rsb.info.nih.gov/ij). The analyzed region of interest was the hematoma and lesion region. Hematoma volumes (basal and 3 and 24 hours) as well as lesion volume at day 14 were manually traced from T2 maps, and the mean signal intensity was measured by 2 well‐trained imaging analysts blind to the experimental conditions.

[4] = tested on: rat model of collagenase‐induced ICH; experiment: Cylinder test (laterality index) in ICH rat model; assay type: in vivo; details: 24 hours and 14 days, all P<0.01 vs control
Description: Following STAIR criteria, animal models must show neurological and functional deficits in line with the produced lesion. The model of collagenase‐induced hemorrhage primarily damages the striatum, producing a small forelimb paresis contralateral to the lesion. Sensorimotor deficits after ischemic insult were assessed using the cylinder test, as previously described.23 This test evaluates limb asymmetry during the exploratory activity. Each animal was put in a cylinder with a 20‐cm‐diameter transparent base. A video camera was located under this transparent cylinder for recording the vertical exploratory movements of the animal with its anterior limbs for 2 to 10 minutes, depending on movement grade. For image recording and analysis, VirtulDub software was used. Analyzed behaviors were the numbers of times that the animal touched the cylinder wall and independent use of each limb in contact with the cylinder wall in each upward movement. The laterality index was calculated (the number of times that the animal touched the cylinder with the right leg during the ascendant movement by the number of times that the animals touched with each leg). […] An experienced investigator, blind to treatment and neuroimaging data, analyzed the behavioral tests.

[5] = 1 mg/kg 3 hours after collagenase, 5 hours
[6] = 1 mg/kg 3 hours after collagenase, 24 hours
[7] = 1 mg/kg iv 1 hour after collagenase, 3 hours
[8] = 1 mg/kg iv 1 hour after collagenase, 24 hours

With CNC(=O)c1ccc(Oc2ccc(S(=O)(=O)[C@]3(C(=O)NO)CCC4(CCNCC4)C3)cc2)cc1 [CM352, 4‐[4‐[[(3R)‐3‐(Hydroxycarbamoyl)‐8‐azaspiro[4.5]decan‐3‐yl]sulfonyl]phenoxy]‐N‐methylbenzamide] as the compound, how does the EC50 ([1]; rat whole blood, tPA‐induced fibrinolysis, ROTEM, read-out: effective concentration to delay lysis time by 50%) read?
Its EC50 is 3.7 µM.

And the “coagulation activation and clot firmness” value ([1]; thromboelastometry assay, whole blood)?
The value was “without changes in coagulation activation and clot firmness”.

What about the IC50 (MMP‐12) of the same compound?
The IC50 was 7.6 nM.

And the IC50 [2]?
Its IC50 is greater than 10 µM.

What about the hematoma expansion [3, 5] of the same compound?
Its hematoma expansion is 115±17%.

What about the “reduction of hematoma expansion versus control” value [3, 5] of the same compound?
The value was 62%.

What about the hematoma expansion [3, 6] of the same compound?
The hematoma expansion was 114±50%.

What about the “reduction of hematoma expansion versus control” value [3, 6] of the same compound?
Its value is 58%.

What about the “lesion size versus control” value ([3]; 1 mg/kg 3 hours after collagenase, up to day 14, P<0.05) of the same compound?
The value was “differences in lesion size were patent between the groups”.

And the “hematoma volume after late administration” value ([3]; 1 mg/kg 3 hours after collagenase, versus control P<0.01)?
The value was “hematoma stabilized”.

What about the hematoma expansion [3, 7] of the same compound?
The hematoma expansion was 200±86%.

What about the “reduction of hematoma expansion versus control” value [3, 7] of the same compound?
The value was 35%.

And the “reduction in hematoma volume compared with controls” value ([3]; 1 mg/kg iv 1 hour after collagenase, 3 hours after ICH)?
The value was 29%.

And the hematoma expansion [3, 8]?
The hematoma expansion was 133±63%.

And the “reduction of hematoma expansion versus control” value [3, 8]?
Its value is 56%.

What about the “reduction in hematoma volume compared with controls” value ([3]; 1 mg/kg iv 1 hour after collagenase, 24 hours after ICH) of the same compound?
The value was 46%.

What about the “lesion volume smaller than controls” value ([3]; 1 mg/kg iv 1 hour after collagenase, 14 days) of the same compound?
The value was 48%.

And the “hematoma volume at 1 hour (basal)” value ([3]; early‐treatment experiment, 1 hour after collagenase, before treatment, n=6)?
The value was 23.2±3.5 mm^3.

And the “hematoma volume at 1 hour” value ([3]; late‐treatment experiment, 1 hour after collagenase, before treatment, n=6)?
Its value is 16.0±1.9 mm^3.

And the “hematoma volume at 3 hours” value ([3]; late‐treatment experiment, 3 hours after collagenase, time of treatment, n=6)?
Its value is 39.8±6.7 mm^3.

What about the “sensorimotor recovery (laterality index)” value ([4]; 1 mg/kg 3 hours after collagenase) of the same compound?
The value was “better sensorimotor recovery”.

And the “sensorimotor recovery (laterality index)” value ([4]; 1 mg/kg iv 1 hour after collagenase)?
The value was “better sensorimotor recovery”.
